Each compound was assayed on KRAS G12V dependent lung adenocarcinoma cell line, NCI-H441 (assay: Cellular pERK (Thr202/Tyr204) FRET/HTRF assay). Details: Homo sapiens, NCI-H441, cellular pERK (Thr202/Tyr204) HTRF, NCI-H441 cells.
Assay type: cell-based
Summary of the method: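 Using a mix-and-read HTRF kit, phospho-ERK (Thr202/Tyr204) was detected in NCI-H441 lysates following 1 hr compound incubation at 37 °C, 5% CO2. Cells had been seeded overnight beforehand, and IC50 was derived by curve fitting.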
`[2H]C([2H])(F)Oc1c(F)cc(F)c2cc(N)cc(-c3ncc4c(N5CCOC[C@H]6[C@H](F)[C@H]65)nc(OC([2H])([2H])[C@@]56CCCN5C[C@H](F)C6)nc4c3F)c12` [Example 139, 6,8-difluoro-4-(8-fluoro-4-((1S,7S,8S)-8-fluoro-5-oxa-2-azabicyclo[5.1.0]octan-2-yl)-2-(((2R,7aS)-2-fluorotetrahydro-1H-pyrrolizin-7a(5H)-yl)methoxy-d2)pyrido[4,3-d]pyrimidin-7-yl)-5-(fluoromethoxy-d2)naphthalen-2-amine] was tested, and the IC50 was under 50 nM.
With `[2H]C([2H])([2H])Oc1c(F)c(F)c(F)c2cc(N)cc(-c3ncc4c(N5CCOC[C@H]6[C@H](F)[C@H]65)nc(OC[C@]56CC(=C)CN5CCC65CC5)nc4c3F)c12` [Example 120, 6,7,8-trifluoro-4-(8-fluoro-4-((1S,7S,8S)-8-fluoro-5-oxa-2-azabicyclo[5.1.0]octan-2-yl)-2-(((R)-6′-methylenetetrahydrospiro[cyclopropane-1,1′-pyrrolizin]-7a′(5′H)-yl)methoxy)pyrido[4,3-d]pyrimidin-7-yl)-5-(methoxy-d3)naphthalen-2-amine] the IC50 was under 50 nM.
Compound `[2H]C([2H])(Oc1nc(N2CCOC[C@H]3[C@H](F)[C@H]32)c2cnc(-c3cc(N)cc4cccc(C#C)c34)c(F)c2n1)[C@@]12CCCN1[C@H](C)[C@H](F)C2` [Example 338, 5-ethynyl-4-(8-fluoro-2-(((2R,3R,7aS)-2-fluoro-3-methyltetrahydro-1H-pyrrolizin-7a(5H)-yl)methoxy-d2)-4-((1S,7S,8S)-8-fluoro-5-oxa-2-azabicyclo[5.1.0]octan-2-yl)pyrido[4,3-d]pyrimidin-7-yl)naphthalen-2-amine] has an IC50 of under 50 nM.
Compound `C#Cc1c(F)ccc2cc(N)cc(-c3ncc4c(N5CCOC[C@@H]6[C@@H](Cl)[C@@H]65)nc(OC[C@]56CC(=C)CN5CCC65CC5)nc4c3C)c12` [Example 347, 4-(4-((1R,7R,8R)-8-chloro-5-oxa-2-azabicyclo[5.1.0]octan-2-yl)-8-methyl-2-(((R)-6′-methylenetetrahydrospiro[cyclopropane-1,1′-pyrrolizin]-7a′(5′H)-yl)methoxy)pyrido[4,3-d]pyrimidin-7-yl)-5-ethynyl-6-fluoronaphthalen-2-amine] has an IC50 of 500 to 10000 nM.
`[2H]C1([2H])CC2(CC2)[C@]2(C([2H])([2H])Oc3nc(N4CCOC[C@H]5[C@H](F)[C@H]54)c4cnc(-c5cc(N)cc6ccc(F)c(C#C)c56)c(F)c4n3)C[C@]([2H])(F)CN12` (single isomer, unassigned) [Example 204] gave an IC50 of under 50 nM.
In the case of `[2H]C([2H])([2H])Oc1c(F)c(F)cc2cccc(-c3ncc4c(N5CCCC[C@H]6[C@H](F)[C@H]65)nc(OC([2H])([2H])[C@@]56CCCN5C[C@H](F)C6)nc4c3F)c12` [Example 109, 7-(6,7-difluoro-8-(methoxy-d3)naphthalen-1-yl)-8-fluoro-4-((1S,7R,8S)-8-fluoro-2-azabicyclo[5.1.0]octan-2-yl)-2-(((2R,7aS)-2-fluorotetrahydro-1H-pyrrolizin-7a(5H)-yl)methoxy-d2)pyrido[4,3-d]pyrimidine], the IC50 is reported as 50 to 500 nM.
For `C#Cc1c(F)ccc2cc(O)cc(-c3ncc4c(N5CCCO[C@H]6C[C@H]65)nc(OC[C@@]5(C)CCCN5)nc4c3F)c12` [Example 281, 4-(4-((1S,7R)-2-oxa-6-azabicyclo[5.1.0]octan-6-yl)-8-fluoro-2-(((R)-2-methylpyrrolidin-2-yl)methoxy)pyrido[4,3-d]pyrimidin-7-yl)-5-ethynyl-6-fluoronaphthalen-2-ol], the IC50 was 500 to 10000 nM.
With `C#Cc1c(F)ccc2cc(N)cc(-c3ncc4c(N5CCOC[C@H]6[C@H](F)[C@H]65)nc(OC[C@@]56CCCN5C[C@@]5(CC5(F)F)C6)nc4c3F)c12` (single isomer, unassigned) [Example 211] the IC50 was under 50 nM.
Compound `[2H]C([2H])(Oc1nc(N2CCOC[C@@H]3[C@@H](F)[C@@H]32)c2ccc(-c3cc(N)cc(C)c3C(F)(F)F)c(F)c2n1)[C@@]12CCCN1C[C@H](F)C2` [Example 182, 3-(8-fluoro-4-((1R,7R,8R)-8-fluoro-5-oxa-2-azabicyclo[5.1.0]octan-2-yl)-2-(((2R,7aS)-2-fluorotetrahydro-1H-pyrrolizin-7a(5H)-yl)methoxy-d2)quinazolin-7-yl)-5-methyl-4-(trifluoromethyl)aniline] has an IC50 of 500 to 10000 nM.
With `[2H]C([2H])([2H])Oc1c(F)c(F)c(F)c2cc(N)cc(-c3ncc4c(N5CCOC[C@H]6[C@H](F)[C@H]65)nc(OC[C@@]56CCCN5CC(=C)C6)nc4c3F)c12` [Example 125, 6,7,8-trifluoro-4-(8-fluoro-4-((1S,7S,8S)-8-fluoro-5-oxa-2-azabicyclo[5.1.0]octan-2-yl)-2-(((S)-2-methylenetetrahydro-1H-pyrrolizin-7a(5H)-yl)methoxy)pyrido[4,3-d]pyrimidin-7-yl)-5-(methoxy-d3)naphthalen-2-amine] the IC50 was under 50 nM.
Compound `C#Cc1c(F)ccc2cc(N)cc(-c3ncc4c(N5CCOC[C@H]6[C@H](F)[C@H]65)nc(OC[C@]56CC(=C)CN5CCC65CC5)nc4c3F)c12` [Example 171, 5-Ethynyl-6-fluoro-4-(8-fluoro-4-((1S,7S,8S)-8-fluoro-5-oxa-2-azabicyclo[5.1.0]octan-2-yl)-2-(((R)-6′-methylenetetrahydrospiro[cyclopropane-1,1′-pyrrolizin]-7a′(5′H)-yl)methoxy)pyrido[4,3-d]pyrimidin-7-yl)naphthalen-2-amine] has an IC50 of under 50 nM.
For `[2H]C([2H])(Oc1nc(N2CCOC[C@H]3[C@H](F)[C@H]32)c2cnc(-c3cc(N)cc4ccc(F)c(C=C)c34)c(F)c2n1)[C@@]12CCCN1C[C@H](F)C2` [Example 199, 6-Fluoro-4-(8-fluoro-4-((1S,7S,8S)-8-fluoro-5-oxa-2-azabicyclo[5.1.0]octan-2-yl)-2-(((2R,7aS)-2-fluorotetrahydro-1H-pyrrolizin-7a(5H)-yl)methoxy-d2)pyrido[4,3-d]pyrimidin-7-yl)-5-vinylnaphthalen-2-amine], the IC50 was under 50 nM.
In the case of `C#Cc1c(F)ccc2cc(N)cc(-c3ncc4c(N5CCOC[C@H]6[C@H](F)[C@H]65)nc(OC[C@]56C[C@@H](F)CN5C[C@@H](CN)C6)nc4c3F)c12` [Example 258, 4-(2-(((2R,6R,7aS)-2-(aminomethyl)-6-fluorotetrahydro-1H-pyrrolizin-7a(5H)-yl)methoxy)-8-fluoro-4-((1S,7S,8S)-8-fluoro-5-oxa-2-azabicyclo[5.1.0]octan-2-yl)pyrido[4,3-d]pyrimidin-7-yl)-5-ethynyl-6-fluoronaphthalen-2-amine], the IC50 is reported as 50 to 500 nM.
`[2H]C([2H])([2H])Oc1c(F)c(F)c(F)c2cccc(-c3ncc4c(N5CCCC[C@H]6[C@H](F)[C@H]65)nc(OC([2H])([2H])[C@@]56CCCN5C[C@H](F)C6)nc4c3F)c12` [Example 110, 8-fluoro-4-((1S,7R,8S)-8-fluoro-2-azabicyclo[5.1.0]octan-2-yl)-2-(((2R,7aS)-2-fluorotetrahydro-1H-pyrrolizin-7a(5H)-yl)methoxy-d2)-7-(5,6,7-trifluoro-8-(methoxy-d3)naphthalen-1-yl)pyrido[4,3-d]pyrimidine] gave an IC50 of 500 to 10000 nM.
Work on `C#Cc1cccc2cc(N)cc(-c3ncc4c(N5CCOC[C@@H]6[C@@H](Cl)[C@@H]65)nc(OC[C@@H]5CCCN5C)nc4c3F)c12` [Example 327, 4-(4-((1R,7R,8R)-8-chloro-5-oxa-2-azabicyclo[5.1.0]octan-2-yl)-8-fluoro-2-(((S)-1-methylpyrrolidin-2-yl)methoxy)pyrido[4,3-d]pyrimidin-7-yl)-5-ethynylnaphthalen-2-amine] yielded an IC50 of 50 to 500 nM.
In the case of `[2H]C([2H])(Oc1nc(N2CC[C@@H](C#N)C[C@H]3[C@H](F)[C@H]32)c2cnc(-c3cc(N)cc4ccc(F)c(C#C)c34)c(F)c2n1)[C@@]12CCCN1C[C@H](F)C2` [Example 304, (1S,5S,7R,8S)-2-(7-(3-amino-8-ethynyl-7-fluoronaphthalen-1-yl)-8-fluoro-2-(((2R,7aS)-2-fluorotetrahydro-1H-pyrrolizin-7a(5H)-yl)methoxy-d2)pyrido[4,3-d]pyrimidin-4-yl)-8-fluoro-2-azabicyclo[5.1.0]octane-5-carbonitrile], the IC50 is reported as under 50 nM.

Same assay, conditions: Homo sapiens, NCI-H441, cellular pERK HTRF, NCI-H441 (KRAS G12V) cells
For `[2H]C([2H])(Oc1nc(N2CCCC[C@H]3[C@H](Cl)[C@H]32)c2cnc(-c3cc(N)cc4ccc(F)c(C#C)c34)c(C)c2n1)[C@@]12CCCN1C[C@H](F)C2` [Example 464, 4-(4-((1S,7R,8S)-8-chloro-2-azabicyclo[5.1.0]octan-2-yl)-2-(((2R,7aS)-2-fluorotetrahydro-1H-pyrrolizin-7a(5H)-yl)methoxy-d2)-8-methylpyrido[4,3-d]pyrimidin-7-yl)-5-ethynyl-6-fluoronaphthalen-2-amine], the IC50 was under 50 nM.

Same assay, conditions: Homo sapiens, NCI-H441, pERK HTRF, NCI-H441 cells (KRAS G12V)
In the case of `[2H]C([2H])(Oc1nc(N2CCCC[C@H]3[C@H](F)[C@H]32)c2cnc(-c3cc(N)cc4c(F)c(F)c(F)c(C#C)c34)c(F)c2n1)[C@@]12CCCN1C[C@H](F)C2` [Example 70, 5-Ethynyl-6,7,8-trifluoro-4-(8-fluoro-4-((1S,7R,8S)-8-fluoro-2-azabicyclo[5.1.0]octan-2-yl)-2-(((2R,7aS)-2-fluorotetrahydro-1H-pyrrolizin-7a(5H)-yl)methoxy-d2)pyrido[4,3-d]pyrimidin-7-yl)naphthalen-2-amine], the IC50 is reported as under 50 nM.
For `[2H]C([2H])(Oc1nc(N2CCCO[C@H]3[C@H](F)[C@H]32)c2cnc(-c3cccc4ccc(F)c(OCF)c34)c(F)c2n1)[C@@]12CCCN1C[C@H](F)C2` [Example 92, (1R,7S,8R)-8-Fluoro-6-(8-fluoro-7-(7-fluoro-8-(fluoromethoxy)naphthalen-1-yl)-2-(((2R,7aS)-2-fluorotetrahydro-1H-pyrrolizin-7a(5H)-yl)methoxy-d2)pyrido[4,3-d]pyrimidin-4-yl)-2-oxa-6-azabicyclo[5.1.0]octane], the IC50 was under 50 nM.

From patent US20250282799A1, “SUBSTITUTED PYRIDO[4,3-d]PYRIMIDINES AS KRAS MODULATORS” (Alterome Therapeutics, Inc., priority 2023, published 2025)
